The source of these data is patent US8962606B2, “Substituted benzosulphonamides” (Bayer Intellectual Property GmbH, priority 2009, dated 2015).

In general, IC50 refers to the midpoint of a concentration-inhibition curve.

Assay [1] concerns HCT116 cells [human colorectal cell line]. As to the kind of experiment: HCT116 Cell Titer Glo (CTG) Proliferation Assay [Assay 1]. Format: cell-based. The note with it: HCT-116, 72 hours incubation. The text has this:
Cell Titer Glo Proliferation Assay
The adherent tumor cell proliferation assay used to test the compounds of the present invention involves a readout called Cell Titre-Glo developed by Promega (Cunningham, B A “A Growing Issue: Cell Proliferation Assays. Modern kits ease quantification of cell growth” The Scientist 2001, 15(13), 26, and Crouch, S P et al., “The use of ATP bioluminescence as a measure of cell proliferation and cytotoxicity” Journal of Immunological Methods 1993, 160, 8 1-88).
Assay 1: HCT116 Cell Titer Glo (CTG) Proliferation Assay:
(§1) HCT116 cells [human colorectal cell line, expressing […]] were plated at a density of 3000 cells/well in 96 well black-clear bottom tissue culture plates (Costar 3603 black/clear bottom) in 100 μl/well DMEM medium (DMEM/Ham's F12) with 10% Fetal Bovine Serum (FBS) and stable Glutamine incubated at 37° C. Sister wells were plated in separate plate for time zero determination. All plates were incubated overnight at 37° C. Take down time zero plate: 100 μl/well CTG solution (Promega Cell Titer Glo solution) were added to time zero wells in sister plate; the plates were mixed for 2 min on orbital shaker to ensure cell lysis, incubated for 10 minutes, luminescence was read on VICTOR3 (Perkin Elmer). Twenty-four hours after cell seeding, test compounds were diluted in 50 μl medium and were added at a final concentration range from as high 10 μM to as low […] depending on the activities of the tested compounds in serial dilutions at a final DMSO concentration of 0.4%. Cells were incubated for 72 hours at 37° C. after addition of the test compound. Then, using a Promega Cell Titer Glo Luminescent® assay kit, 100 μl microliter lysis buffer containing of the enzyme luciferase and its substrate, luciferin mixture, were added to each well and incubated for 10 min at room temperature in the dark to stabilize luminescence signal. The samples were read on VICTOR3 (Perkin Elmer) using Luminescence protocol. The percentage change in cell growth was calculated by normalizing the measurements to the extinctions of the zero point plate (=0%) and the extinction of the untreated (0 μM) cells (=100%). The IC50 values were determined by means of a 4-parameter fit using the company's own software.
A general note: In ATP-based viability assays light output follows the ATP content of the culture.

In assay [2] the test system is A375 cells [human melanoma cell line, expressing mutant BRAF V600E]. As to the kind of experiment: A375 Crystal Violet (CV) Proliferation Assay [Assay 5]. The assay is classed as cell-based. The note with it: A-375, 96 h, crystal violet staining, 4 days incubation. Here is the method: Assay 5: A375 Crystal Violet (CV) Proliferation Assay:
Cell proliferation for A375 cells [human melanoma cell line, expressing mutant BRAF V600E] was measured by crystal violet (CV) staining: Cultivated human A375 cells were plated out in a density of 1500 cells/measurement point in 200 μl of growth medium (DMEM/HAMS F12 with 10% FBS and 2 mM Glutamine) in a 96-well multititer plate. After 24 hours, the cells from a plate (zero plate) were stained with crystal violet (see below), while the medium in the other plates was replaced by fresh culture medium (200 μl) to which the test substances had been added in various concentrations (0 μM, and in the range 0.3 nM-30 μM; the final concentration of the solvent dimethyl sulphoxide was 0.5%). The cells were incubated in the presence of the test substances for 4 days. The cell proliferation was determined by staining the cells with crystal violet: the cells were fixed by adding 20 μl/measurement point of an 11% glutaraldehyde solution at room temperature for 15 min. After the fixed cells had been washed three times with water, the plates were dried at room temperature. The cells were stained by adding 100 μl/measurement point of a 0.1% crystal violet solution (pH adjusted to pH 3 by adding acetic acid). After the stained cells had been washed three times with water, the plates were dried at room temperature. The dye was dissolved by adding 100 μl/measurement point of a 10% acetic acid solution, and the extinction was determined by photometry at a wavelength of 595 nm. The percentage change in cell growth was calculated by normalizing the measurements to the extinctions of the zero point plate (=0%) and the extinction of the untreated (0 μM) cells (=100%). The IC50 values were determined by means of a 4-parameter fit using the company's own software.

Assay [3] deals with A549 cells [human non small cell lung cancer cell line, expressing mutant K-Ras G12S]. As to the kind of experiment: A549 Cell Titer Glo (CTG) Proliferation Assay [Assay 2]. The assay is classed as cell-based. The settings on record: 72 hours incubation. Here is the method: as §1
Assay 2: A549 Cell Titer Glo (CTG) Proliferation Assay:
A549 cells [human non small cell lung cancer cell line, expressing mutant K-Ras G12S] were seeded at a density of 2000 cells/well in 96 well black-clear bottom tissue culture plates (Costar 3603 black/clear bottom) in 100 μl/well DMEM medium (DMEM/Ham's F12) with 10% Fetal Bovine Serum (FBS) and stable Glutamine incubated at 37° C. Cell Titer Glo proliferation assays for A549 cells were performed with the same protocol as described afore for HCT116 cells.

Another assay concerns colon cancer. The settings on record: oral treatment, mouse models, background [18]; cited from earlier work.
Another assay deals with MEK1/2. The settings on record: second-generation MEK1/2 inhibitor, background [17]; cited from earlier work.

In the case of `CCS(=O)(=O)Nc1cccc(Oc2cc(F)cc(Nc3ccc(I)cc3F)c2NS(=O)(=O)C2CC2)c1` [Example 1, N-(2-{3-[(ethylsulfonyl)amino]phenoxy}-4-fluoro-6-[(2-fluoro-4-iodophenyl)amino]phenyl)cyclopropanesulfonamide], the half-inhibitory concentration (IC50) in assay [1] worked out at 26.5 nM; in assay [2], 0.351 nM; in assay [3], 18.1 nM.
`CCS(=O)(=O)Nc1cccc(Oc2cc(F)cc(Nc3ccc(I)cc3F)c2NS(C)(=O)=O)c1` [Example 2, N-(3-{5-fluoro-3-[(2-fluoro-4-iodophenyl)amino]-2-[(methylsulfonyl)-amino]phenoxy}-phenyl)ethane-sulfonamide]: the IC50 is 28.3 nM in assay [1], 0.899 nM in assay [2] and 39.4 nM in assay [3].
For `CCS(=O)(=O)Nc1cccc(Oc2cc(F)cc(Nc3ccc(I)cc3F)c2NS(=O)(=O)CC)c1` [Example 3, N-(3-{2-[(ethylsulfonyl)amino]-5-fluoro-3-[(2-fluoro-4-iodophenyl)amino]-phenoxy}phenyl)-ethanesulfonamide], the half-maximal inhibitory concentration (IC50) in assay [1] turned out to be 31.7 nM; in assay [2], 1.56 nM; in assay [3] it was 73.6 nM.
Taken in the same sequence, the figures for `CCS(=O)(=O)Nc1cccc(Oc2cc(F)cc(Nc3ccc(I)cc3F)c2NS(=O)(=O)C(C)C)c1` [Example 4, N-(2-{3-[(ethylsulfonyl)amino]phenoxy}-4-fluoro-6-[(2-fluoro-4-iodophenyl)amino]-phenyl)propane-2-sulfonamide] were 53.7 nM, 15.6 nM and 92.5 nM.
For `CCS(=O)(=O)Nc1cccc(Oc2cc(F)cc(Nc3ccc(I)cc3F)c2NS(N)(=O)=O)c1` [Example 6, N-(3-{5-fluoro-3-[(2-fluoro-4-iodophenyl)amino]-2-(sulfamoylamino)phenoxy}phenyl)ethanesulfonamide], in that order: 100 nM, 2.44 nM and 68.9 nM.
As to `CCS(=O)(=O)Nc1cccc(Oc2cc(F)cc(Nc3ccc(I)cc3F)c2NS(=O)(=O)C2CC2)c1C` [Example 7, N-(2-{3-[(ethylsulfonyl)amino]-2-methylphenoxy}-4-fluoro-6-[(2-fluoro-4-iodophenyl)amino]phenyl)cyclopropanesulfonamide], the IC50 came to 3 nM in assay [1] and 0.171 nM in assay [2].
As to `CCS(=O)(=O)Nc1cccc(Oc2cc(F)cc(Nc3ccc(I)cc3F)c2NS(N)(=O)=O)c1C` [Example 8, N-(3-{5-fluoro-3-[(2-fluoro-4-iodophenyl)amino]-2-(sulfamoylamino)phenoxy}-2-methylphenyl)ethanesulfonamide], the figures for the IC50 in assay [1], in assay [2] and in assay [3] were 10 nM, 0.68 nM and 4.78 nM, respectively.
Regarding `C#Cc1ccc(Nc2cc(F)cc(Oc3cccc(NS(=O)(=O)CC)c3)c2NS(=O)(=O)C2CC2)c(F)c1` [Example 9, N-(2-{3-[(ethylsulfonyl)amino]phenoxy}-6-[(4-ethynyl-2-fluorophenyl)amino]-4-fluorophenyl)cyclopropanesulfonamide], the IC50 in assay [1] was 59.6 nM; in assay [2], 2.39 nM; in assay [3] it was 137 nM.
`C#Cc1ccc(Nc2cc(F)cc(Oc3cccc(NS(=O)(=O)CC)c3)c2NS(N)(=O)=O)c(F)c1` [Example 10, N-(3-{3-[(4-ethynyl-2-fluorophenyl)amino]-5-fluoro-2-(sulfamoylamino)phenoxy}phenyl)ethanesulfonamide]: the figures for the IC50 in assay [1], in assay [2] and in assay [3] were 70 nM, 7.93 nM and 86.7 nM, respectively.
With `NS(=O)(=O)Nc1cccc(Oc2cc(F)cc(Nc3ccc(I)cc3F)c2NS(=O)(=O)C2CC2)c1` [Example 11, N-{4-fluoro-2-[(2-fluoro-4-iodophenyl)amino]-6-[3-(sulfamoylamino)phenoxy]phenyl}cyclopropanesulfonamide], the results for the IC50 in assay [1] and in assay [3] were 7.04 nM and 6.65 nM, respectively.
Regarding `CC(C)S(=O)(=O)Nc1cccc(Oc2cc(F)cc(Nc3ccc(I)cc3F)c2NS(=O)(=O)C2CC2)c1` [Example 12, N-(4-fluoro-2-[(2-fluoro-4-iodophenyl)amino]-6-{3-[(isopropylsulfonyl)amino]phenoxy}phenyl)cyclopropanesulfonamide], the IC50 in assay [1] came to 32 nM; in assay [2], 0.729 nM; in assay [3] it was 36.1 nM.
Compound `NS(=O)(=O)Nc1cc(Oc2cc(F)cc(Nc3ccc(I)cc3F)c2NS(=O)(=O)C2CC2)ccc1F` [Example 14, N-{4-fluoro-2-[(2-fluoro-4-iodophenyl)amino]-6-[4-fluoro-3-(sulfamoylamino)phenoxy]phenyl}cyclopropanesulfonamide] registered an IC50 in assay [2] of 18.6 nM.
As to `O=C(NOCC1CC1)c1ccc(F)c(F)c1Nc1ccc(I)cc1Cl` [PD184352], the “colon cancer growth in vivo” value in the assay on colon cancer is on record as “inhibit colon cancer growth in vivo”. The IC50 result with MEK1/2 is listed as “low nanomolar range”.
For `NC(=O)c1c(Nc2ccc(I)cc2F)cc(F)cc1Oc1cccc(NS(N)(=O)=O)c1` [reference compound], the IC50 in assay [1] was found to be 208 nM; in assay [2], 4.53 nM; in assay [3], 319 nM.
